According to publication PMC7855594 (Cell chemical biology, 2020):

What was measured:
USP7 [1] = target: T1, USP7 (Homo sapiens, UniProt Q93009); assay type: biochemical
USP7 [2] = target: T1, USP7; experiment: purified enzyme biochemical assay; conditions: cited from earlier work
USP7 [3] = target: T1, USP7; assay type: biochemical; remark: listed apart in the source

T1 sequence (Q93009 whole entry): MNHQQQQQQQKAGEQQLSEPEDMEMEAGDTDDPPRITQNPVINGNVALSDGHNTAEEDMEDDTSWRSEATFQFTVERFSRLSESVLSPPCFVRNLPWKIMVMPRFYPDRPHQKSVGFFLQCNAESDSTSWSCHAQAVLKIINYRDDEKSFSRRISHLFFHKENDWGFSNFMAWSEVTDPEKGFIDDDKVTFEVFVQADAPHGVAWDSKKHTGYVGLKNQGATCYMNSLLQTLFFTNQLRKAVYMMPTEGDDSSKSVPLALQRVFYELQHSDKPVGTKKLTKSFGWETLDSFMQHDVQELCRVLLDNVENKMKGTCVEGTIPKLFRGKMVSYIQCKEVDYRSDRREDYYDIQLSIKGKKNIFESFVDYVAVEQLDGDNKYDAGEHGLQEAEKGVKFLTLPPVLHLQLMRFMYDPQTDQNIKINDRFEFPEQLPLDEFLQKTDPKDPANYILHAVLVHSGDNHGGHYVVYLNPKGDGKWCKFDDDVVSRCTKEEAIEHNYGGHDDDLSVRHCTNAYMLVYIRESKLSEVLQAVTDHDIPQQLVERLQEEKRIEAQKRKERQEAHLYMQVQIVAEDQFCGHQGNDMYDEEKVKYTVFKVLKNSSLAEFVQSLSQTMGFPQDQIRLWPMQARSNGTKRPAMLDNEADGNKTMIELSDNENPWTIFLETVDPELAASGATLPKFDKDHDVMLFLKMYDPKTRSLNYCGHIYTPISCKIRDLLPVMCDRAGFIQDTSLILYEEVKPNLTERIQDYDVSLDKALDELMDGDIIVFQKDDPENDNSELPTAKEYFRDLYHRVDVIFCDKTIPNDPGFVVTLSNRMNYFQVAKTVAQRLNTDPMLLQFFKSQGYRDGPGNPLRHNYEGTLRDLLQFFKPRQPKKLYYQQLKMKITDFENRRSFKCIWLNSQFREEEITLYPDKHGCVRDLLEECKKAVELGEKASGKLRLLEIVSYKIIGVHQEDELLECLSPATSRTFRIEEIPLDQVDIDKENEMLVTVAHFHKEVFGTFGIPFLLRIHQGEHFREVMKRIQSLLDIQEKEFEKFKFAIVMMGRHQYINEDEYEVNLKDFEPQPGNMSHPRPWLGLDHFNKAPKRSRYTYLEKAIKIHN

CN1CCN(CCC(=O)Nc2ccc3c(=O)n(CC4(O)CCN(C(=O)[C@@H](CCCNC(=O)c5ccc6c(Cl)c7c(nc6c5)CCCC7)Cc5ccccc5)CC4)cnc3c2)CC1 [XL177A]
% inhibition at 1 μM (USP7 [1]): 100

C[C@@H](CC(=O)N1CCC(O)(Cn2cnc3cc(NC(=O)CCN4CCN(C)CC4)ccc3c2=O)CC1)c1ccccc1 [XL203C]
IC50 (USP7 [2]): 7 µM

C[C@H](CC(=O)N1CCC(O)(Cn2cnc3cc(NC(=O)CCN4CCN(C)CC4)ccc3c2=O)CC1)c1ccccc1 [XL188]
% inhibition at 10 μM (USP7 [3]): 100
